Test results reported in patent publication EP0925786A1, “REMEDIES FOR ISCHEMIC DISEASES” (MITSUBISHI CHEMICAL CORPORATION, priority 1996, dated 1998).

Columns and labels:
[1] = molecular target: T1, m-Calpain (Rattus norvegicus, UniProt Q07009); assay: Measurement of inhibitory activity against calpain; assay type: biochemical; conditions: m-Calpain purified from rat brain
T1 construct: m-Calpain was purified from rat brain; from tissue; host or cells: rat brain
T1 sequence (Q07009 20-700 limits assumed): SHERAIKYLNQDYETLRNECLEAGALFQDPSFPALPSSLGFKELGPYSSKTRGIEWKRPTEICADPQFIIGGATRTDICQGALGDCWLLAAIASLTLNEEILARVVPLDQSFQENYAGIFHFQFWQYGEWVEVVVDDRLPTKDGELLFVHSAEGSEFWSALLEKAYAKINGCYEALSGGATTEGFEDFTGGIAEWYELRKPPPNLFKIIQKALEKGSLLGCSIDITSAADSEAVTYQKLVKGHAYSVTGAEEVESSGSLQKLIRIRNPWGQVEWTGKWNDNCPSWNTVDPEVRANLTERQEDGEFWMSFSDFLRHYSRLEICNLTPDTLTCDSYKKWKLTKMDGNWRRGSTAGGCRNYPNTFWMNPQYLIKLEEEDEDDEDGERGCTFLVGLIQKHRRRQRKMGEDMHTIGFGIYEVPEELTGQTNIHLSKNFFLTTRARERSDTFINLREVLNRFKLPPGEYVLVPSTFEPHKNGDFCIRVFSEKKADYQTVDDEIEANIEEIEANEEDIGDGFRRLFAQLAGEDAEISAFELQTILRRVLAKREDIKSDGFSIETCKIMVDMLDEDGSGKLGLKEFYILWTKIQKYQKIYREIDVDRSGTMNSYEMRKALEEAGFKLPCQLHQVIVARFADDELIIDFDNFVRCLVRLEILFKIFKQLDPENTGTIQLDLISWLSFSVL
T1 sequence (Q64537 1-270 partner): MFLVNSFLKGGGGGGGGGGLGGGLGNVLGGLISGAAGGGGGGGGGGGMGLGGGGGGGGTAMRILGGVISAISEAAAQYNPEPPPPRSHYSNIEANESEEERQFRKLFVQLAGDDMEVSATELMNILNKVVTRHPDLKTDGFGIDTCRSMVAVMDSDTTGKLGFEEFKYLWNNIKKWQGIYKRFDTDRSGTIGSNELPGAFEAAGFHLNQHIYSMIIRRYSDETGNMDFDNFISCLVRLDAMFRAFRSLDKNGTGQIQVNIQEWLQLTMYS
Protocol: m-Calpain was purified from rat brain in accordance with the method described in Journal of Biological Chemistry, vol. 259, p. 3210, 1984, and its inhibitory activity was measured in accordance with the method described in Journal of Biological Chemistry, vol. 259, p. 12489, 1984.

[2] = tested on: female SD rats; assay: Myocardial infarct size-limiting effect in acute myocardial infarction model of rat; assay type: in vivo
Protocol: An experiment was performed on female SD rats (14 weeks of age). The rats were lightly anesthetized with ether and a left thoracotomy wag performed. A permanent occlusion was placed around the proximal left coronary artery to produce acute myocardial infarction. Infarct size evaluated in each excised heart at 24 hours after the ligation.
The animals were divided into 2 groups at random, and 10 mg/kg of the compound of Inventive Example 29 (Compound No.. 426 in Table 2) suspended in water with Tween 80 was orally administered in a volume of 1 ml/kg to each animal of one of these groups (drug group) 1 hour before the coronary artery ligation, while the same volume of tap water was administered to the other group (control group). A rat with successful thoracotomy and which survived until 24 hours after the coronary ligation was used as the final evaluation subject. This study was continued until the final number of animals in each group reached 8.
Evaluation of the myocardial infarct size was carried out in the following manner. Each of the excised heart was cut into the slices at 2 mm thick from apex to base, and the sections were stained by incubating them in TTC solution (1%) at 37°C for 20 minutes to confirm necrotic region and non-necrotic region. Thereafter, sectional images of the sections were photographed to carry out image analysis on a computer. The infarction size was expressed as a % value obtained by dividing total area of necrotic area of all sliced sections by total left ventricle area (including septum part and excluding left ventricle cavity).

[3] = in vivo; conditions: both sexes, SD, rat, po
[4] = Formation of active metabolite in blood (rat serum incubation, HPLC); assay type: in vitro ADME; conditions: final concentration 100 µM, 5 minutes of incubation at 37°C
Protocol: (2S,3S)-2-Acetoxy-3-((S)-4-methyl-2-phenylsulfonylaminovalerylamino)tetrahydrofuran obtained in Inventive Example 2 was dissolved in acetonitrile and added to rat serum to a final concentration of 100 µM. After 5 minutes of incubation at 37°C, this was mixed with acetonitrile and centrifuged and then the thus obtained supernatant fluid was checked by HPLC. It was found as the result that a 97% portion of the thus added (2S,3S)-2-acetoxy-3-((S)-4-methyl-2-phenylsulfonylaminovalerylamino)-tetrahydrofuran was hydrolyzed and converted into its active metabolite (3S)-3-((S)-4-methyl-2-phenylsulfonylaminovalerylamino)-2-tetrahydrofuranol (compound of Inventive Example 1).
HPLC was carried out under the following conditions. • Column: Nucleosil 100 5C18 4.6 x 250 mm (manufactured by Nargel) • Column temperature: 50°C • Mobile phase: CH3CN:H2O:PIC A Low UV (manufactured by Waters) 22:78:1 • Flow rate: 1 ml/min • Detection wave length: UV 222 nm

[5] = Formation of active metabolite in blood (human sera, HPLC); assay type: in vitro ADME; conditions: same procedure
[6] = Formation of active metabolite in blood (dog sera, HPLC); assay type: in vitro ADME; conditions: same procedure
[7] = tested on: male Wistar rats; assay: Action to improve passive avoidance response after a short period of fore-brain ischemia; assay type: in vivo, rat; conditions: dose of 1 mg/kg, po, 30 minutes before 5 minutes of ischemia loading; retrieval test 48 hours after reperfusion
From the text: Also, animals treated only with cauterization of vertebral arteries were used as a pseudo-operation group. During ischemia and after reperfusion, body temperature of the animals was maintained by putting them on a heat insulating mat until righting reflex was recovered.
An apparatus composed of a light room (50 x 50 x 50 cm) equipped with a 100 W bulb and a dark room (20 x 14 x 20 cm) was used in the passive avoidance response test. Each of the rats which have been subjected to cauterization of both vertebral arteries 48 hours prior to the test was put into the light room and its latency to enter the dark room was measured to be used as the response latency at the time of acquisition trial. […] When each rat entered the dark room, the guillotine door was closed and the rat was immediately exposed to an electric shock (2.9 mA, 5 seconds) from the floor grid, thus completing the acquisition trial. Subsequently, 5 minutes of ischemia loading (occlusion of both common carotid arteries) was carried out under ether anesthesia, and retrieval test was carried out 48 hours after reperfusion. […] Presence or absence of the action to improve passive avoidance response was judged by comparing response latencies of the acquisition trial and retrieval test. Each drug to be tested was orally administered 30 minutes before the ischemia loading.

Question: For `Cc1ccc(C(=O)N[C@@H](CC(C)C)C(=O)N[C@H]2CCOC2O)cc1` (stereo partly drawn) [Inventive Example 12, (3S)-3-{(S)-4-methyl-2-(4-methylbenzoylamino)valerylamino}-2-tetrahydrofuranol], which IC50 [1] is on record?
Answer: The IC50 was 330 nM.

Question: With `CCCCCCCCCCCCCCOC(=O)N[C@@H](CC(C)C)C(=O)N[C@H]1CCOC1O` (stereo partly drawn) [Inventive Example 3, (3S)-3-((S)-4-methyl-2-tetradecyloxycarbonylaminovalerylamino)-2-tetrahydrofuranol] as the compound, how does the IC50 [1] read?
Answer: The IC50 was 110 nM.

Question: For `COc1ccc(S(=O)(=O)N[C@@H](CC(C)C)C(=O)N[C@H]2CCOC2O)cc1` (stereo partly drawn) [Inventive Example 17, (3S)-3-{(S)-2-(4-methoxyphenylsulfonylamino)-4-methylvalerylamino}-2-tetrahydrofuranol], which IC50 [1] is on record?
Answer: The IC50 was 670 nM.

Question: With `CC(C)C[C@H](NC(=O)c1ccccc1F)C(=O)N[C@H]1CCOC1O` (stereo partly drawn) [Inventive Example 10, (3S)-3-{(S)-2-(2-fluorobenzoylamino)-4-methylvalerylamino}-2-tetrahydrofuranol] as the compound, how does the IC50 [1] read?
Answer: The IC50 was 170 nM.

Question: With `CC(=O)O[C@@H]1OCC[C@@H]1NC(=O)[C@H](CC(C)C)NS(=O)(=O)c1c(C)cc(C)cc1C` [Inventive Example 29, (2S,3S)-2-acetoxy-3-{(S)-4-methyl-2-(2,4,6-trimethylphenylsulfonylamino)valerylamino}tetrahydrofuran] as the compound, how does the infarct size ([2]; 10 mg/kg orally 1 hour before coronary artery ligation, 24 hours after ligation, necrotic area / total left ventricle area, control 37.3 ± 3.5%) read?
Answer: Its infarct size is 25.0 ± 1.7%.

Question: And the “infarct size reducing ratio” value ([2]; 10 mg/kg orally, based on the control group)?
Answer: The value was 33.0%.

Question: And the “animals died during the thoracotomy” value ([2]; drug group 10 mg/kg orally, control group 2)?
Answer: The value was 3.

Question: What about the “animals died within 24 hours after the operation” value ([2]; drug group 10 mg/kg orally, control group 9) of the same compound?
Answer: Its value is 10.

Question: What about the LD50 at 7 days [3] of the same compound?
Answer: Its LD50 at 7 days is > 2000 mg/kg.

Question: For `CC(=O)O[C@@H]1OCC[C@@H]1NC(=O)[C@H](CC(C)C)NS(=O)(=O)c1ccccc1` [Inventive Example 2, (2S,3S)-2-acetoxy-3-((S)-4-methyl-2-phenylsulfonylaminovalerylamino)tetrahydrofuran], which “portion hydrolyzed and converted into its active metabolite” value [4] is on record?
Answer: Its value is 97%.

Question: What about the “formation of active metabolite” value [5] of the same compound?
Answer: The value was “the same active metabolite is formed”.

Question: What about the “formation of active metabolite” value [6] of the same compound?
Answer: The value was “the same active metabolite is formed”.

Question: What about the “action to improve passive avoidance response” value [7] of the same compound?
Answer: The value was “showed the improving action”.

Question: What about the LD50 at 7 days [3] of the same compound?
Answer: Its LD50 at 7 days is > 2000 mg/kg.

Question: With `CCCCCCCCCCCCCCCC(=O)N[C@@H](CC(C)C)C(=O)N[C@H]1CCOC1O` (stereo partly drawn) [Inventive Example 9, (3S)-3-((S)-2-hexadecanoylamino-4-methylvalerylamino)-2-tetrahydrofuranol] as the compound, how does the IC50 [1] read?
Answer: The IC50 was 160 nM.

Question: For `CCCCCCCCCCCCCCC(=O)N[C@@H](CC(C)C)C(=O)N[C@H]1CCOC1O` (stereo partly drawn) [Inventive Example 8, (3S)-3-((S)-4-methyl-2-pentadecanoylaminovalerylamino)-2-tetrahydrofuranol], which IC50 [1] is on record?
Answer: Its IC50 is 110 nM.

Question: Which IC50 [1] does the source give for `CC(C)C[C@H](NS(=O)(=O)c1ccc2ccccc2c1)C(=O)N[C@H]1CCOC1O` (stereo partly drawn) [Inventive Example 18, (3S)-3-{(S)-4-methyl-2-(2-naphthylsulfonylamino)valerylamino}-2-tetrahydrofuranol] here?
Answer: The IC50 was 360 nM.

Question: With `CC(=O)O[C@@H]1OCC[C@@H]1NC(=O)[C@H](CC(C)C)NC(=O)c1ccccc1F` [Inventive Example 24, (2S,3S)-2-acetoxy-3-{(S)-2-(2-fluorobenzoylamino)-4-methylvalerylamino}tetrahydrofuran] as the compound, how does the “action to improve passive avoidance response” value [7] read?
Answer: The value was “showed the improving action”.

Question: With `CC(C)C[C@H](NS(=O)(=O)c1ccccc1)C(=O)N[C@H]1C(C)COC1O` (stereo partly drawn) [Inventive Example 19, (3S)-4-methyl-3-((S)-4-methyl-2-phenylsulfonylaminovalerylamino)-2-tetrahydrofuranol] as the compound, how does the IC50 [1] read?
Answer: The IC50 was 2500 nM.

Question: Which IC50 [1] does the source give for `CCCCCCCCCCCCCCCCS(=O)(=O)N[C@@H](CC(C)C)C(=O)N[C@H]1CCOC1O` (stereo partly drawn) [Inventive Example 13, (3S)-3-((S)-2-hexadecylsufonylamino-4-methylvalerylamino)-2-tetrahydrofuranol] here?
Answer: Its IC50 is 420 nM.
